Data published in ChEMBL document CHEMBL5038635, “Discovery of Salidroside-Derivated Glycoside Analogues as Novel Angiogenesis Agents to Treat Diabetic Hind Limb Ischemia” (J Med Chem, 2022).
Activity calls are given as the source filed them. The calls are words filed in the database; no cut-off is given here.

Tests used:
C2C12 [1] = assay: Reversal of hyperglycemia-induced VEGF-A protein level reduction in mouse C2C12 cells measured at 30 uM by Western blot analysis; type: functional, cell-based
C2C12 [2] = assay: Angiogenic activity in mouse C2C12 cells assessed as accumulation ANG1 protein expression at 300 uM by Western blot analysis; type: functional, cell-based
[3] = Permeability coefficient across apical to basolateral side in human Caco-2 cells by HPLC-UV analysis
[4] = Toxicity in diabetic HLI C57BL/6 mouse model assessed as effect on body weight at 15 to 100 mg/kg, im administered measured after 21 days; type: organism-based; conditions: in vivo, 504 h, dose 15-100 mg/kg, time 21 day
C2C12 [5] = assay: Angiogenic activity in mouse C2C12 cells assessed as reversal of hyperglycemia-induced reduction in total cell number at 100 uM measured after 24 to 36 hrs by EdU-incorporation assay; type: functional, cell-based; conditions: time 24-36 hrs
C2C12 [6] = assay: Angiogenic activity in mouse C2C12 cells assessed as reversal of hyperglycemia-induced reduction in total cell number at 300 uM measured after 24 to 36 hrs by EdU-incorporation assay; type: functional, cell-based; conditions: time 24-36 hrs
C2C12 [7] = assay: Angiogenic activity in mouse C2C12 cells assessed as reversal of hyperglycemia-induced reduction in total cell number measured after 12 to 36 hrs; type: functional, cell-based
C2C12 [8] = assay: Apoptotic rate in hyperglycemia-treated mouse C2C12 cells assessed as early apoptotic cells at 30 uM by AnnexinV-FITC/PI staining based flow cytometric analysis (reference value: 7.10 %); type: functional
C2C12 [9] = assay: Upregulation of PDGF-B protein expression in mouse C2C12 cells at 30 uM by Western blot analysis; type: functional, cell-based
C2C12 [10] = assay: Upregulation of FGF2 protein expression in mouse C2C12 cells at 30 uM by Western blot analysis; type: functional, cell-based
C2C12 [11] = assay: Upregulation of HO-1 protein expression in mouse C2C12 cells at 30 uM by Western blot analysis; type: functional, cell-based
C2C12 [12] = assay: Upregulation of FGF18 protein expression in mouse C2C12 cells at 30 uM by Western blot analysis; type: functional, cell-based
C2C12 [13] = assay: Upregulation of PIK3CG protein expression in mouse C2C12 cells at 30 uM by Western blot analysis; type: functional, cell-based
C2C12 [14] = assay: Upregulation of FGF1protein expression in mouse C2C12 cells at 30 uM by Western blot analysis; type: functional, cell-based
C2C12 [15] = assay: Reversal of hyperglycemia-induced VEGF-A protein level reduction in mouse C2C12 cells measured at 30 uM by ELISA; type: functional, cell-based
C2C12 [16] = assay: Induction of cell migration in mouse C2C12 cells at 30 uM under hyperglycemic condition incubated for 24 hrs by crystal violet dye based transwell chamber assay; type: functional
C2C12 [17] = assay: Reversal of cell migration in mouse C2C12 cells at 30 uM under hyperglycemic condition incubated for 24 hrs by crystal violet dye based transwell chamber assay; type: functional
C2C12 [18] = assay: Apoptotic rate in mouse C2C12 cells with silenced HIF-1alpha assessed as late apoptotic cells at 30 uM by AnnexinV-FITC/PI staining based FACS analysis (reference value: 9.62 %); type: functional
C2C12 [19] = assay: Apoptotic rate in mouse C2C12 cells with silenced HIF-1alpha assessed as early apoptotic cells at 30 uM by AnnexinV-FITC/PI staining based FACS analysis (reference value: 4.02 %); type: functional
HUVEC [20] = assay: Angiogenic activity in human HUVEC cells assessed as suppression of F-actin polymerization at 30 uM using conditioned medium of mouse C2C12 cells treated at 30 uM under hyperglycemic condition for 12 hrs followed by hypoxia for 12 hrs by phalloidin staining based confocal microscopy; type: functional, cell-based; conditions: time 24.0 hrs
MOVAS-1 = assay: Angiogenesis activity in mouse MOVAS-1 cells assessed as suppression of cell migration using conditioned medium of mouse C2C12 cells treated at 30 uM under hyperglycemic condition for 12 hrs followed by hypoxia for 24 hrs by crystal violet dye based transwell assay; type: functional; conditions: time 36.0 hrs
HUVEC [21] = assay: Induction proliferation of human HUVEC cells assessed as increase in number of EdU-positive cells using conditioned medium of mouse C2C12 cells with silenced HIF-1alpha treated at 30 uM under hyperglycemic condition for 12 hrs followed by hypoxia for 24 hrs in presence of VEGFR inhibitor Ki8751 by EdU-incorporation assay; type: functional, cell-based; conditions: time 36.0 hrs
[22] = Stability in rat plasma assessed as compound remaining at 6.25 to 25 mg/L after 12 hrs by HPLC analysis; type: ADME, cell-free; conditions: at 6.25 to 25 µg/mL, dose 6.25-25 mg/L, read-out: Stability
Mus musculus [23] = assay: Antidiabetic activity in diabetic HLI C57BL/6 mouse model assessed as increase in blood perfusion recovery at 30 mg/kg administered intramuscularly measured after 14 days; type: functional; conditions: time 14 day
Mus musculus [24] = assay: Antidiabetic activity in diabetic HLI C57BL/6 mouse model assessed as suppression of apoptotic rate in skeletal muscle cell in gastrocnemius muscle at 15 to 30 mg/kg, IM administered by TUNEL assay; type: functional, organism-based; conditions: dose 15-30 mg/kg
[25] = Toxicity in diabetic HLI C57BL/6 mouse model assessed as spleen pathology at 30 mg/kg, IM administered by HE staining based assay; type: organism-based; conditions: in vivo
[26] = Toxicity in diabetic HLI C57BL/6 mouse model assessed as kidney pathology at 30 mg/kg, IM administered by HE staining based assay; type: organism-based; conditions: in vivo
C2C12 [27] = assay: Induction proliferation of mouse C2C12 cells assessed as increase in number of EdU-positive cells at 30 uM under normoglycemic condition by EdU-incorporation assay; type: functional, cell-based
Mus musculus [28] = assay: Angiogenesis activity in nondiabetic HLI C57BL/6 mouse model assessed as as increase in blood perfusion recovery at 30 mg/kg, im administered for 14 days; type: functional, organism-based; conditions: time 14.0 day
C2C12 [29] = assay: Angiogenesis activity in mouse C2C12 cells assessed as decrease in apoptotic rate at 30 uM under hyperglycemia condition presence of MeOE2 inhibitor by Annexin V/PI staining based Flowcytometry method; type: functional, cell-based
C2C12 [30] = assay: Effect on PHD2 mRNA expression in mouse C2C12 cells at 30 uM by qRT-PCR analysis; type: functional, cell-based

COc1ccc(Cc2cccc(O[C@@H]3O[C@H](CO)[C@@H](O)[C@H](O)[C@H]3O)c2)cc1
Activity (C2C12 [1]): Active
inhibition (C2C12 [2]): Active
Papp A→B [3]: 1.04 ×10⁻⁶ cm/s
Activity [4]: Non-Toxic
Activity (C2C12 [5]): inactive
Activity (C2C12 [6]): inactive
EC50 (C2C12 [7]): 12.7 µM
Activity (C2C12 [8]): 2.13%
Activity (C2C12 [9]): Active
Activity (C2C12 [10]): Active
Activity (C2C12 [11]): Active
Activity (C2C12 [12]): Active
Activity (C2C12 [13]): Active
Activity (C2C12 [14]): Active
Activity (C2C12 [15]): Active
Activity (C2C12 [16]): Active
Activity (C2C12 [17]): Active
Activity (C2C12 [18]): 14.63%
Activity (C2C12 [19]): 3.18%
Activity (HUVEC [20]): Active
Activity (MOVAS-1): Active
Activity (HUVEC [21]): inactive
remaining at 12 h [22]: 98.5%
Activity (Mus musculus [23]): 70%
Activity (Mus musculus [24]): Active
Activity [25]: Non-Toxic
Activity [26]: Non-Toxic
Activity (C2C12 [27]): Active
Activity (Mus musculus [28]): Active
Activity (C2C12 [29]): inactive
Activity (C2C12 [30]): inactive
